Laboratory results: US20070179120A1, “HYDROXYL COMPOUNDS AND COMPOSITIONS FOR CHOLESTEROL MANAGEMENT AND RELATED USES” (ESPERION THERAPEUTICS, INC., priority 2003, published 2007)
Read-outs that look alike come from different tables or passages of the source.

Columns and labels:
obese female Zucker rats = assay: Oral daily treatment of obese female Zucker rats for fourteen days: serum lipids, glycemic control indicators, body weight; format: in vivo, rat; conditions: for change in vivo at 100 mg/kg/day / change in vivo at 100 mg/kg: Rattus norvegicus, 336 h; for change in vivo at 100 mg/kg/day: 100 mg/kg/day oral gavage, read-out: % wt. gain; for change in vivo at 100 mg/kg / HDL-C/non-HDL-C: 100 mg/kg/day oral; for HDL-C/non-HDL-C: serum ratio
Procedure: In a number of different experiments, illustrative compounds of the invention are administered daily at a dose of up to 100 mg/kg to chow fed obese female Zucker rats for fourteen days in the morning by oral gavage in 1.5% carboxymethylcellulose/0.2% Tween 20 or 20% ethanol/80% polyethylene glycol (dosing vehicles). Animals are weighed daily. Animals are allowed free access to rodent chow and water throughout the study except on days of blood sampling where food is restricted for six hours prior to blood sampling. Blood glucose is determined after the 6 hour fast in the afternoon without anesthesia from a tail vein. Serum is also prepared from pretreatment blood samples subsequently obtained from the orbital venous plexus (with O2/CO2 anesthesia) and following the fourteenth dose at sacrifice from the heart following O2/CO2 anesthesia. Serums are assayed for lipoprotein cholesterol profiles, triglycerides, total cholesterol, Non-HDL cholesterol, HDL cholesterol, the ratio of HDL cholesterol to that of Non-HDL cholesterol, insulin, non-esterified fatty acids, and beta-hydroxy butyric acid. The percent body weight gain and the ratio of liver to body weight is also determined. These are shown as absolute values or as a percent change of the pretreatment values in Table 1 for compounds A-K and in Table 2 for compounds L-M. [drawing 111]

primary rat hepatocytes = assay: Inhibition of lipid synthesis ([1-14C]-acetate incorporation) in primary rat hepatocytes; format: cell-based; conditions: Hepatocyte, 4 hours incubation, 0-300 μM
Procedure: Compounds were tested for inhibition of lipid synthesis in primary cultures of rat hepatocytes. Male Sprague-Dawley rats were anesthetized with intraperitoneal injection of sodium pentobarbital (80 mg/kg). Rat hepatocytes were isolated essentially as described by the method of Seglen (Seglen, P. O. Hepatocyte suspensions and cultures as tools in experimental carcinogenesis. J. Toxicol. Environ. Health 1979, 5, 551-560). Hepatocytes were suspended in Dulbecco's Modified Eagles Medium containing 25 mM D-glucose, 14 mM HEPES, 5 mM L-glutamine, 5 mM leucine, 5 mM alanine, 10 mM lactate, 1 mM pyruvate, 0.2% bovine serum albumin, 17.4 mM non-essential amino acids, 20% fetal bovine serum, 100 nM insulin and 20 μg/mL gentamycin) and plated at a density of 1.5×10^5 cells/cm^2 on collagen-coated 96-well plates. Four hours after plating, media was replaced with the same media without serum. Cells were grown overnight to allow formation of monolayer cultures. Lipid synthesis incubation conditions were initially assessed to ensure the linearity of [1-^14C]-acetate incorporation into hepatocyte lipids for up to 4 hours. Hepatocyte lipid synthesis inhibitory activity was assessed during incubations in the presence of 0.25 μCi [1-^14C]-acetate/well (final radiospecific activity in assay is 1 Ci/mol) and 0, 1, 3, 10, 30, 100 or 300 μM of compounds for 4 hours. At the end of the 4-hour incubation period, medium was discarded and cells were washed twice with ice-cold phosphate buffered saline and stored frozen prior to analysis. To determine total lipid synthesis, 170 μl of MicroScint-E® and 50 μl water was added to each well to extract and partition the lipid soluble products to the upper organic phase containing the scintillant. Lipid radioactivity was assessed by scintillation spectroscopy in a Packard TopCount NXT.

female Syrian hamsters = assay: Chow-fed female Syrian hamsters, 3 weeks of oral dosing: lipoprotein cholesterol, triglycerides, glucose, insulin, body weight, bile acids; format: in vivo; conditions: chow-fed hamster, 100 mg/kg/day oral, 3 weeks of dosing
Procedure: Ten week old female Syrian hamsters were acclimated for 21 days to a shortened light and dark cycle (10 hours of light/14 hours of darkness). During the acclimation and drug intervention period animals were allowed free access to rodent chow (Purina 5001) and water except for a 6 hour period prior to blood sampling. Following the 21 day acclimation period ESP 55015 was administered daily for three weeks, between 8 10 AM, at a dose of 100 mg/Kg by oral gavage in a dosing vehicle consisting of 20% Ethanol/80% Polyethylene glycol 200 [v/v]. Prior to and in the afternoon following the 13th and 21st doses blood samples were collected, between 2 PM and 4 PM, by administering O2/CO2 anesthesia and bleeding from the orbital venous plexus. All blood samples were processed for separation of serum. Serum samples were subsequently assayed for total cholesterol, total cholesterol lipoprotein profiles (HDL cholesterol, LDL cholesterol and VLDL cholesterol), the ratio of HDL cholesterol, LDL cholesterol and VLDL cholesterol), the ratio of HDL cholesterol to non HDL cholesterol (LDL C, VLDL C) and triglycerides (Table 4). Percent body weight gain and ratio of liver weight to body weight were also determined.

[1] = blood glucose after 6 hour fast, read-out: Glucose (Percent of Pre-treatment)
[2] = serum beta-hydroxy butyric acid, read-out: BHA (Percent of Pre-treatment)
[3] = serum non-esterified fatty acids, read-out: NEFA (Percent of Pre-treatment)
[4] = serum total cholesterol, read-out: TC (Percent of Pre-treatment)
[5] = serum triglycerides, read-out: TG (Percent of Pre-treatment)
[6] = serum, read-out: HDL-C (Percent of Pre-treatment)
[7] = serum, read-out: Insulin (Percent of Pre-treatment)
[8] = serum, read-out: Non-HDL-C (Percent of Pre-treatment)

Row | melting point | Compound | change in vivo at 100 mg/kg/day (obese female Zucker rats) | change in vivo at 100 mg/kg (obese female Zucker rats; [1]) | change in vivo at 100 mg/kg (obese female Zucker rats; [2]) | change in vivo at 100 mg/kg (obese female Zucker rats; [3]) | change in vivo at 100 mg/kg (obese female Zucker rats; [4]) | change in vivo at 100 mg/kg (obese female Zucker rats; [5]) | change in vivo at 100 mg/kg (obese female Zucker rats; [6]) | change in vivo at 100 mg/kg (obese female Zucker rats; [7]) | change in vivo at 100 mg/kg (obese female Zucker rats; [8]) | HDL-C/non-HDL-C (obese female Zucker rats) | IC50 (primary rat hepatocytes) | further results
1 | – | CC(C)(CCCCC(O)CCCCC(C)(C)C(=O)O)C(=O)O [A] | 12% | -2% | 231% | -11% | 14% | -59% | 50% | 43% | -41% | 5 | 3.4 µM | –
2 | – | CC(C)(CCCCCC(O)CCCCCC(C)(C)C(=O)O)C(=O)O [C] | 3% | -11% | 171% | -42% | 105% | -90% | 169% | -57% | -80% | 40 | 1 µM | –
3 | 72 to 74 °C | CC(C)(CO)CCCCC(O)CCCCC(C)(C)CO [Compound 6.1, 2,2,12,12-Tetramethyltridecane-1,7,13-triol] | – | – | – | – | – | – | – | – | – | – | – | –
4 | 72 to 74 °C | CC(C)(CO)CCCCC(CCCCC(C)(C)CO)C(C)(C)O [Compound 6.12, 7-(1-Hydroxy-1-methylethyl)-2,2,12,12-tetramethyltridecane-1,13-diol] | – | – | – | – | – | – | – | – | – | – | – | –
5 | 71 to 75 °C | CC(C)(CO)CCCCCC(O)CCCCCC(C)(C)CO [Compound 6.17, 2,2,14,14-Tetramethylpentadecane-1,8,15-triol] | – | – | – | – | – | – | – | – | – | – | – | –
6 | 79 to 80 °C | CC(C)(CO)CCCCCC(O)CCCCC(C)(C)CO (stereo not shown) [Compound 6.27, 2,2,13,13-Tetramethyltetradecane-1,7,14-triol] | – | – | – | – | – | – | – | – | – | – | – | –
7 | 75 to 77 °C | CC(C)(CO)CCCCCCC(O)CCCCCCC(C)(C)CO [Compound 6.32, 2,2,16,16-Tetramethylheptadecane-1,9,17-triol] | – | – | – | – | – | – | – | – | – | – | – | –
8 | 65 to 67 °C | CC(C)(CCCCCC(O)CCCCCC(C)(C)CC(=O)c1cccnc1)COC(=O)c1cccnc1 (stereo not shown) [Compound 6.37, Nicotinic acid 8-hydroxy-2,2,14,14-tetramethyl-15-nicotinoylpentadecyl ester] | – | – | – | – | – | – | – | – | – | – | – | –
9 | 98 to 99 °C | CC(C)(CO)Cc1cccc(C(O)c2cccc(CC(C)(C)CO)c2)c1 [Compound 6.46, 3-(3-{Hydroxy-[3-(3-hydroxy-2,2-dimethylpropyl)-phenyl]-methyl}-phenyl)-2,2-dimethylpropan-1-ol] | – | – | – | – | – | – | – | – | – | – | – | –
10 | – | CC(C)(CO)CCCCCC(O)CCCCCC(C)(C)CO [Compound B] | 1% | -3% | 199% | -28% | 105% | -87% | 237% | -52% | -81% | 35 | 5.1 µM | Bile Acids (female Syrian hamsters): 67,108 ± 17,529 ng/ml; Body wt. (female Syrian hamsters): 146 ± 2 gm; Glucose (female Syrian hamsters): 122 ± 3; Insulin (female Syrian hamsters): 2.4 ± 0.7; HDL-C (female Syrian hamsters; serum): 63 ± 4 mg/dL; LDL-C (female Syrian hamsters; serum): 44 ± 4 mg/dL; TG (female Syrian hamsters; serum): 128 ± 37 mg/dL; VLDL-C (female Syrian hamsters; serum): 4 ± 2 mg/dL
11 | – | CC(C)(CO)CCCCC(O)CCCCC(C)(C)C(=O)O (stereo not shown) [Compound I] | – | – | – | – | – | – | – | – | – | – | 2.3 µM | –
12 | – | CC(C)(CO)CCCCCC(O)CCCCC(C)(C)CO (stereo not shown) [D] | – | – | – | – | – | – | – | – | – | – | 1.6 µM | –
13 | – | CC(C)(CCCCC(O)CCCC(C)(C)C(=O)O)C(=O)O (stereo not shown) [E] | – | – | – | – | – | – | – | – | – | – | 8.3 µM | –
14 | – | CC(C)(CO)CCCCC(O)CCCCC(C)(C)CO [F] | 3% | 10% | – | -43% | 53% | -46% | 222% | -4% | -15% | 2 | 6.4 µM | –
15 | – | CC(C)(CO)CCCCCCC(O)CCCCCCC(C)(C)CO [G] | 9% | 14% | 163% | -62% | 21% | -80% | 68% | -38% | -68% | 12 | 7.8 µM | –
16 | – | CC(C)(CO)CCCCCCCC(O)CCCCCCCC(C)(C)CO [H] | 9% | 19% | 97% | -30% | 61% | -36% | 115% | -30% | -5% | 3 | 2.6 µM | –
17 | – | CC(C)(CO)CCCCC(CO)CCCCC(C)(C)CO [J] | 12% | 21% | 183% | -32% | -6% | -23% | -2% | -11% | -12% | 2 | 17 µM | –
18 | – | CC(C)(CCCCC(CO)CCCCC(C)(C)C(=O)O)C(=O)O [K] | 10% | 3% | 253% | -32% | 35% | -45% | 62% | 41% | -38% | 9 | 14 µM | –
19 | – | CCCCC(O)CCCCCC(C)(C)C(=O)O (stereo not shown) [L] | 12% | 13% | 88% | -27% | -3% | -37% | -2% | -37% | -11% | 4 | – | –
